In patent US20240299339A1, “COMPOSITION FOR SUPPRESSING MUSCLE DAMAGE” (OTSUKA PHARMACEUTICAL CO., LTD., priority 2021, published 2024):

Experiment: Verification of function of KMP using 400-m run: blood markers in healthy subjects
Type: in vivo, human
Details: 16 healthy subjects (20 to 22 years old); single dose of capsule food containing 10 mg of KMP, 3 h before two 400-m full-speed runs 90 min apart; vs placebo
Protocol: According to usual methods, blood samples were taken, and the concentration of each blood marker was measured. […] It is known that blood myoglobin is detected with muscle fiber damage and that its concentration increases with muscle fiber damage (J. Appl. Physiol. 83 (4): 1076-1082, 1997).
The capsule foods used in the test were prepared according to the following procedures. Quinoa grains were extracted twice with 50% aqueous ethanol at 70° C., followed by concentration under reduced pressure. To a solution obtained by purifying the resultant with resin, Aromase H2 (produced by Amano Enzyme, Inc.) was added, and the enzyme was allowed to act (conversion into aglycone) while stirring at 50° C. The resulting reaction liquid was heated to 100° C. and maintained for 15 minutes to inactivate the enzyme. Thereafter, the treated liquid was freeze-dried to give an ethanol extraction powder. To the powder, starch was added in an amount equal to the amount of the powder (on a weight basis), followed by mixing. Capsules were filled with the resulting mixture in an amount of 116 mg (including 2.5 mg of kaempferol) per capsule. The subjects ingested four capsules (10 mg of kaempferol in total) at one time. The food used as the placebo was obtained by filling capsules with only starch.

O=c1c(O)c(-c2ccc(O)cc2)oc2cc(O)cc(O)c12 [KMP, Kaempferol]
blood myoglobin level after running at full speed: significantly lower
